Measurements reported in US20240390464A1, “Treatment of Adults With Overweight or Obesity With or Without Weight-Related Comorbidities” (Carmot Therapeutics Inc., priority 2023, published 2024).
Numbered stars: 1 amine (or outer) side, 2 acyl side, 3 side chain; on linkers, the order of the positions; unused ones are H or OH. Square brackets hold non-standard residues; d marks the D form. Side chains are listed from the residue outwards. Peptide text beside a SMILES is read from it. * marks the point of attachment. Isobutyryl(2-(3-CN-5-F-Ph)) = CC(C)(C(=O)*)c1cc(F)cc(C#N)c1; C20 diacid = O=C(O)CCCCCCCCCCCCCCCCCCC(=O)*; γGlu = O=C(O)[C@H](CCC(=O)[*:2])N[*:1]; AEEA = NCCOCCOCC(=O)O; Aib = CC(C)(N)C(=O)O; βAla = NCCC(=O)O

Experiment: chronic toxicology, repeat dosing 26 weeks
Format: in vivo
Settings: rats
Text: Thus, CT-388 can be a potent drug that induces significant weight loss and helps achieve optimal glycemic control, with acceptable tolerability, in overweight or obese adults with or without T2DM or other weight-related comorbidities. CT-388 can potentially be used as a non-invasive alternative to bariatric surgery for weight management.

## CC[C@H](C)[C@H](NC(=O)[C@H](CC(C)C)NC(=O)[C@H](Cc1c[nH]c2ccccc12)NC(=O)[C@H](CCC(N)=O)NC(=O)[C@@H](NC(=O)[C@H](Cc1ccccc1)NC(=O)[C@H](C)NC(=O)[C@H](CCCCNC(=O)COCCOCCNC(=O)COCCOCCNC(=O)CC[C@H](NC(=O)CCCCCCCCCCCCCCCCCCC(=O)O)C(=O)O)NC(=O)[C@H](CCC(N)=O)NC(=O)[C@H](C)NC(=O)[C@@H](NC(=O)[C@H](CCCCN)NC(=O)[C@H](CC(=O)O)NC(=O)[C@H](CC(C)C)NC(=O)C(C)(C)NC(=O)[C@@H](NC(=O)[C@H](CO)NC(=O)[C@H](Cc1ccc(O)cc1)NC(=O)[C@H](CC(=O)O)NC(=O)[C@H](CO)NC(=O)[C@@H](NC(=O)[C@H](Cc1ccccc1)NC(=O)[C@@H](NC(=O)CNC(=O)[C@H](CCC(=O)O)NC(=O)CCNC(=O)C(C)(C)c1cc(F)cc(C#N)c1)[C@@H](C)O)[C@@H](C)O)[C@@H](C)CC)[C@@H](C)CC)C(C)C)C(=O)N[C@@H](C)C(=O)NCC(=O)NCC(=O)N1CCC[C@H]1C(=O)N[C@@H](CO)C(=O)N[C@@H](CO)C(=O)NCC(=O)N[C@@H](C)C(=O)N1CCC[C@H]1C(=O)N1CCC[C@H]1C(=O)N1CCC[C@H]1C(=O)N[C@@H](CO)C(N)=O [CT-388] ({Isobutyryl(2-(3-CN-5-F-Ph))-βAla}-EGTFTSDYSI[Aib]LDKIAQK([AEEA-AEEA-γGlu-C20 diacid])AFVQWLIAGGPSSGAPPPS-NH2)
26-weeks
  tolerated dosing exceeds the pharmacologically active dose: 100 fold
Repeat dosing over 26-weeks
  tolerability, chronic toxicology: well tolerated
